In ChEMBL document CHEMBL1201862, “PubChem BioAssay data set” (2004):
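96-well plates; 48 h exposure; 5 concentrations. Endpoints by linear interpolation between flanking doses. Not reached: highest tested concentration assigned. GI50 = concentration required for 50% inhibition of growth.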 Calls of active or inactive are those of the source. Cut-off read from the data, not from the text of the source: active = GI50 up to about 1.1 µM and inactive = higher. Non-standard residues stand in square brackets, D forms with d. Residues, ends and D or L forms follow the SMILES beside them. ξ: configuration not given here. ξLac(3-iPr) = CC(C)CC(O)C(=O)O; NMeV = CN[CH](C(=O)O)C(C)C; NMeA = CN[CH](C)C(=O)O; βAla = NCCC(=O)O

Tests used:
Experiment in all cases: inhibition of tumour cell growth, NCI panel, 48 h
[1] = tested on: NCI-H23
[2] = tested on: SW-620
[3] = tested on: T47D
[4] = tested on: HCC 2998
[5] = tested on: A549
[6] = tested on: OVCAR-4
[7] = tested on: SK-MEL-5
[8] = tested on: 786-0
[9] = tested on: OVCAR-5
[10] = tested on: TK-10
[11] = tested on: CCRF-CEM
[12] = tested on: RXF 393
[13] = tested on: MDA-MB-231
[14] = tested on: U-251
[15] = tested on: EKVX
[16] = tested on: IGROV-1
[17] = tested on: LOX IMVI
[18] = tested on: UO-31
[19] = tested on: KM12
[20] = tested on: SNB-75

SMILES: CC1Cc2cc(O)c(O)cc2-c2cc(O)c(O)cc2CC1C (stereo not given)
- GI50 [1]: 14.8 µM (inactive)
- GI50 [2]: 20.5 µM (inactive)
- GI50 [3]: 25.2 µM (inactive)
- GI50 [4]: 17.4 µM (inactive)
- GI50 [5]: 31.6 µM (inactive)
- GI50 [6]: 15.6 µM (inactive)
- GI50 [7]: 4.81 µM (inactive)
- GI50 [8]: 14.3 µM (inactive)
- GI50 [9]: 18.9 µM (inactive)
- GI50 [10]: 26.4 µM (inactive)
- GI50 [11]: 14.1 µM (inactive)
- GI50 [12]: 18.1 µM (inactive)
- GI50 [13]: 6.71 µM (inactive)
- GI50 [14]: 15.2 µM (inactive)
- GI50 [15]: 18.5 µM (inactive)
- GI50 [16]: 20.4 µM (inactive)
- GI50 [17]: 10.2 µM (inactive)
- GI50 [18]: 25.3 µM (inactive)
- GI50 [19]: 4.48 µM (inactive)
- GI50 [20]: > 100 µM (inactive)

SMILES: CCC(C)C1NC(=O)C2CCCN2C(=O)C(CC(C)C)OC(=O)CCNC(=O)C(C)N(C)C(=O)C(C(C)C)N(C)C1=O (stereo not given) (cyclo([ξLac(3-iPr)]PI[NMeV][NMeA][βAla]); configuration not given here)
- GI50 [1]: 9.84 µM (inactive)
- GI50 [2]: 3.73 µM (inactive)
- GI50 [3]: 4.68 µM (inactive)
- GI50 [4]: 2.13 µM (inactive)
- GI50 [5]: 4.82 µM (inactive)
- GI50 [6]: > 50.7 µM (inactive)
- GI50 [7]: 1.21 µM (inactive)
- GI50 [8]: 2.09 µM (inactive)
- GI50 [9]: 4.83 µM (inactive)
- GI50 [10]: 23.2 µM (inactive)
- GI50 [11]: 0.736 µM (active)
- GI50 [12]: 3.83 µM (inactive)
- GI50 [13]: 6.24 µM (inactive)
- GI50 [14]: 10.3 µM (inactive)
- GI50 [15]: 10.2 µM (inactive)
- GI50 [16]: 5.83 µM (inactive)
- GI50 [17]: 1.11 µM (active)
- GI50 [18]: 6.84 µM (inactive)
- GI50 [19]: 3.44 µM (inactive)
- GI50 [20]: 15.5 µM (inactive)

SMILES: CC1=C2C(=O)[C@H]3[C@@H](CC=C4C[C@@H](O)CC[C@@]43C)[C@@H]2CC[C@]12O[C@@H]1C[C@H](C)CN[C@H]1[C@H]2C [JERVINE]
- GI50 [1]: > 42.3 µM (inactive)
- GI50 [2]: > 49.4 µM (inactive)
- GI50 [3]: > 100 µM (inactive)
- GI50 [4]: > 54 µM (inactive)
- GI50 [5]: > 43 µM (inactive)
- GI50 [6]: > 44.5 µM (inactive)
- GI50 [7]: > 39.8 µM (inactive)
- GI50 [8]: > 41.9 µM (inactive)
- GI50 [9]: > 100 µM (inactive)
- GI50 [10]: > 37.2 µM (inactive)
- GI50 [11]: > 63.4 µM (inactive)
- GI50 [12]: > 38.5 µM (inactive)
- GI50 [13]: > 100 µM (inactive)
- GI50 [14]: > 41.4 µM (inactive)
- GI50 [15]: > 45.9 µM (inactive)
- GI50 [16]: > 54.7 µM (inactive)
- GI50 [17]: > 41.1 µM (inactive)
- GI50 [18]: > 40.1 µM (inactive)
- GI50 [19]: > 50.4 µM (inactive)
- GI50 [20]: > 36.4 µM (inactive)
